Patent US20120157419A1, “METHODS AND COMPOSITIONS FOR TREATING ALZHEIMER'S DISEASE” (priority 2009, published 2012)

Assays:
[1] = 14C-Aramchol radioactivity in the brain of rats after oral administration; type: in vivo, male Wistar rats; details: for Radioactivity in brain tissues: rat brain homogenate
Procedure: Male Wistar rats weighing 200-250 gm received a single gavage administration of ^14C-labeled-Aramchol (suspended in 0.3 ml saline), at a target dose level of 16 μCi/ml (40 μCi/kg). Aramchol is also known as “3beta-arachidyl amido, 7α,12α-dihydroxy-5-beta-cholan-24-oic acid” or “C-20 FABAC,” an amide conjugate (at position 3 of the bile acid) of arachidic and cholic acids. Groups of 3 animals were sacrificed following gavage, using ketamine anesthesia, at 3, 12, 24 or 72 hours.
Brain tissue samples were excised, homogenized in ice-cold 5M guanidine thiocyanate/HCl, pH 8, and rotated at room temperature for 4 h. Homogenates were stored at −80° C. Brain homogenates were diluted and centrifuged, and the ^14C-label was detected by mixing samples with scintillation fluid and reading in a liquid scintillation counter.

[2] = test system: human astrocyte cells (ccf-sttg1 cell line); assay: Cholesterol efflux from a human astrocyte cell line; type: cell-based; details: for Concentration evoking maximal cholesterol efflux / Concentration of maximal effect on cholesterol efflux: 20 hr incubation, [3H]cholesterol-loaded ccf-sttg1 cells
Procedure: Human astrocyte cells (1×10^6 cells/ml; ccf-sttg1 cell line) were incubated in 24 plates for 24-48 hours in 10% FCS (Fetal Calf Serum) in DMEM (Dulbecco's modified Eagle's Media) in a humidified 37° C. incubator in the presence of 7.5% CO2. After the incubation time Cholesterol loading was performed by incubating the cells for 20 hr with DMEM supplemented with 30 μg/ml cholesterol, 0.5 μCi/ml of [^3H]cholesterol and 0.2% fatty-acid-free BSA (Bovine Serum Albumin). After incubation, the cells were washed four times with PBS (Phosphate Buffered Saline) containing 0.2% fatty-acid-free BSA. Cells were then incubated for 20 hr in a humidified incubator at 37° C. in the presence of 10% CO2, with or without apolipoproteins (ApoE) or FABACs (Aramchol or Steamchol) at several concentrations. The medium was collected and centrifuged at 12000 g for 5 min to remove cellular debris. The aliquots of the supernatant were taken to count the effluxed [^3H]cholesterol. The remaining cell-associated [^3H]cholesterol was determined after extraction for at least 30 min with propan-2-ol. Efflux was determined in the presence, or absence, of apolipoproteins or FABACs. FABACs were dissolved in ethanol and added to the medium at the concentrations indicated. The amount of [^3H]cholesterol in the medium and cellular extract was quantified by liquid-scintillation counting. The radioactivity released into the medium was expressed as the fraction of the total radioactive cholesterol that was present in the supernatant of each well. The percentage efflux was calculated by dividing the radioactive counts in the efflux medium by the sum of the counts in the medium and cell extract.
Astrocyte brain cells (ccf-sttg1 cell line) were maintained under the same conditions as above (Example 3) and the effect of the 2 physiological stimulants ApoE3 and ApoE4 was tested. […] FABACs evoked a maximal cholesterol efflux at the concentrations of 2 microgram/ml (Steamchol) and 5 microgram/ml (Aramchol) while the apolipoproteins reached a maximal effect at the concentration of 10 microgram/ml. Furthermore, at the above concentrations, the % of cell cholesterol removed into the medium was about 25% higher with the FABACs as compared to the apolipoproteins. Note that the control efflux induced by the medium only is equal in both sets of experiments. The efflux at concentrations of 20 microgram/ml is problematic, since cell damage occurs at this concentration.

[3] = Aramchol plasma levels after single oral ascending doses in normal human volunteers; type: in vivo
Procedure: To 200 μL of each plasma sample, calibrator, and QC sample were added 20 μL of 2.5 μg/mL internal standard solution in 1:1 methanol:water followed by 50 μl, of 5% acetic acid and 2 mL of methyltertbutylether. The samples were mixed on a rotating shaker for 5 minutes and centrifuged. After centrifugation, the aqueous layer of the samples was frozen and the upper (organic) layer was transferred to evaporation tubes and evaporated to dryness under a gentle stream of N2 at ˜40° C. The samples were then reconstituted in 200 μL of 5:4:1 methanol:acetonitrile:20 mM ammonium acetate, mixed, and centrifuged. 100 μL of the clear upper solution was transferred to auto-sampler vials and analyzed by UPLC-MS/MS using a Waters Acquity UPLC BEH C18, 50×2.1 mm, 1.7μ column. A sample blank (blank plasma) and reagent blank (water) were also prepared, but without internal standard added (1:1 methanol:water added instead).
Normal human volunteers (n=12) ingested Aramchol in a formulation containing sodium lauryl sulfate and carboxy methyl cellulose, in a single dose containing 30, 100, 300, or 900 mg of Aramchol. Blood was sampled at 0, 1, 3, 4, 6, 9, 12, 18, 24, 36, 48, and 72 hours following ingestion. Aramchol blood levels were measured by a mass spectroscopy-based method (Goldiner et al., J Chromatogr B Analyt Technol Biomed Life Sci 2003; 795: 35-40). Aramchol plasma levels were measurable at all doses and were dose-proportional.

| Compound | Radioactivity in brain tissues ([1]; 3 hr after single gavage of 14C-labeled Aramchol (40 μCi/kg)) [cpm/mg tissue] | Radioactivity in brain tissues ([1]; 12 hr after single gavage of 14C-labeled Aramchol (40 μCi/kg)) [cpm/mg/tissue] | Time at which brain radioactivity disappeared ([1]; single gavage, rats) [h] | Time of peak radioactivity in brain ([1]; single gavage, rats) [h] | Time radioactivity first detected in brain ([1]; single gavage, rats) [h] | Cholesterol efflux at 2 μg/ml ([2]; 2 μg/ml, compared with 5-10 μg/ml) | Cholesterol efflux at 20 μg/ml ([2]; 20 μg/ml, compared with 5-10 μg/ml) | Concentration evoking maximal cholesterol efflux [2] [microgram/ml] | Concentration of maximal effect on cholesterol efflux [2] [µg/mL] | Effect on cholesterol efflux ([2]; ccf-sttg1 cells, versus medium) | Aramchol plasma level at 24 hr ([3]; 24 hr after a single ingestion, human) | Aramchol plasma level at 36 hr ([3]; 36 hr after a single ingestion, human) | Time blood levels remain high ([3]; after a single administration, humans) | Aramchol plasma levels versus dose ([3]; single oral dose 30-900 mg, human plasma) | Potency on cholesterol efflux relative to comparator ([2]; ccf-sttg1 cells) |
| --- | --- | --- | --- | --- | --- | --- | --- | --- | --- | --- | --- | --- | --- | --- | --- |
| CCCCCCCCCCCCCCCCCCCC(=O)N[C@H]1CC[C@@]2(C)[C@@H](C1)C[C@@H](O)[C@@H]1[C@@H]2C[C@H](O)[C@]2(C)[C@@H]([C@H](C)CCC(=O)O)CC[C@@H]12 [Aramchol, 3β-arachidylamido-7α,12α, dihydroxy 5β-cholan-24-oic acid] | 0.15 | 0.32 | ~24 | 12 | 3 | Lower efflux levels | decrease in cholesterol efflux | 5 | 5 to 10 | increased cholesterol efflux | high Aramchol levels | substantial levels | over 24 hours | dose-proportional |  |
| CCCCCCCCCCCCCCCCCC(=O)N[C@H]1CC[C@@]2(C)[C@@H](C1)C[C@@H](O)[C@@H]1[C@@H]2C[C@H](O)[C@]2(C)[C@@H]([C@H](C)CCC(=O)O)CC[C@@H]12 [Steamchol, 3β-stearoylamido-7α,12α-dihydroxy-5β-cholan-24-oic acid] |  |  |  |  |  |  |  | 2 | 2 |  |  |  |  |  | higher potency than Aramchol |
